The values below come from patent US5869476A, “Pyrimidinone derivatives” (Boryung Pharmaceutical Co., Ltd., priority 1994, dated 1999).

pIC50: −log10 of the molar value.

This experiment concerns the target T1, angiotensin II receptor (Oryctolagus cuniculus, UniProt P34976).
T1 construct: The aorta was cut into 3~4 mm to form ring samples; from tissue; host or cells: isolated aorta rings of New Zealand White rabbits
T1 sequence (P34976 1-359): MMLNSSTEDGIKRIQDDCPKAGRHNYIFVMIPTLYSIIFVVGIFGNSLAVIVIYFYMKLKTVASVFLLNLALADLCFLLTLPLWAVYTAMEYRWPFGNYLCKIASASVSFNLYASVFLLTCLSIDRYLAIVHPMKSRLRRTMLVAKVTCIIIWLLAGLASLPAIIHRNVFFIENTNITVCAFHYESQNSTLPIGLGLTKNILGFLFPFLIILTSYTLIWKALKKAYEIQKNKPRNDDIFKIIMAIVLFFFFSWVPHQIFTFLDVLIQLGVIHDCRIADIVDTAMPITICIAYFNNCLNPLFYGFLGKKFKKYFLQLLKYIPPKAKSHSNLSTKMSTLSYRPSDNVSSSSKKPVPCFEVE
The experiment is described as follows: inhibition of angiotensin II induced contraction of isolated rabbit aorta rings. It is filed as cell-based, New Zealand White rabbit. The settings on record: test compound incubated 20 minutes, 37° C., pH 7.4, read-out: IC50 (concentration being required to inhibit angiotensin II induced contraction by 50%). How it is done:
The antagonistic activity of the representative compounds of the invention was evaluated using the methodology describe below.
From New Zealand White rabbits (male or female, 2~2.5 kg), aorta was isolated, and fat and connected tissue were removed therefrom. The aorta was cut into 3~4 mm to form ring samples. The aorta sample was suspended in 20 ml of organ bath (37° C.) containing modified Krebs-Henseleit solution saturated with 95% O2 /5% CO2 (pH 7.4).
The aorta preparation was exposed consecutively to 2 g of tensile strength for 90 minutes intermittently washing the sample with 30 minutes interval and then to 30 mM of KCl to observe contraction response. After washing more than three times, the aorta preparation was again allowed to contract three times for stabilization by adding Angiotensin II ([…]) thereto with 30 minutes interval. The third contraction response to Angiotensin II was considered as control.
10 minutes after the third contraction, the test compound was administered to the aorta preparation, which was incubated for 20 minutes.
Comparing angiotensin II contraction curve obtained from the above inhibition test with that of the control, IC50 (concentration being required to inhibit angiotensin II induced contraction by 50%) was determined for each test compound(Table 1).
Regarding `CCCCc1nc(=O)c(CCC(=O)OCC)c(C)n1Cc1ccc(-c2ccccc2-c2nnn[nH]2)cc1` [Compound 24, 2-n-butyl-5-(2'-ethoxycarbonylethyl)-6-methyl-1-[[2'-(1H-tetrazol-5-yl)biphenyl-4-yl]methyl]-pyrimidin-4-(1H)-one], the pIC50 was 6.77. Next, `CCOC(=O)CCc1c(C)nc(CC)n(Cc2ccc(-c3ccccc3-c3nnn[nH]3)cc2)c1=O` [Compound 5, 2-ethyl-5-(2'-ethoxycarbonylethyl)-6-methyl-3-[[2'-(1H-tetrazol-5-yl)biphenyl-4-yl]methyl]-pyrimidin-4-(3H)-one]: 7.51; `CCCCc1nc(C)c(CCC(=O)N2CCC[C@H]2C(=O)OC)c(=O)n1Cc1ccc(-c2ccccc2-c2nn[nH]n2)cc1` [Compound 59, 2-n-butyl-5-[2'-((S)-2"-methoxycarbonylpyrrolidino)-carbonylethyl]-6-methyl-3-[[2'-(1H-tetrazol-5-yl)biphenyl-4-yl]-methyl]-pyrimidin-4-(3H)-one]: 8.47; `CCCCc1nc(C)c(CCC(=O)N2CCCCCCC2)c(=O)n1Cc1ccc(-c2ccccc2-c2nn[nH]n2)cc1` [Compound 71, 2-n-butyl-5-(2'-heptamethyleneiminocarbonylethyl)-6-methyl-3-[[2'-(1 H-tetrazol-5-yl)biphenyl-4-yl]methyl]-pyrimidin-4-(3H)-one]: 7.77.

With `CCc1nc(=O)c(CC(=O)O)c(C)n1Cc1ccc(-c2ccccc2-c2nnn[nH]2)cc1` [Compound 3, 2-ethyl-5-carboxymethyl-6-methyl-1-[[2'-(1H-tetrazol-5-yl)-biphenyl-4-yl]methyl]-pyrimidin-4-(1H)-one], the pIC50 was 7.65. Turning to `CCCCc1nc(C)c(CC(=O)N2CCC(C(=O)OCC)CC2)c(=O)n1Cc1ccc(-c2ccccc2-c2nn[nH]n2)cc1` [Compound 51, 2-n-butyl-5-(4'-ethoxycarbonylpiperidinocarbonylmethyl)-6-methyl-3-[[2'-(1H-tetrazol-5-yl)biphenyl-4-yl]methyl]-pyrimidin-4-(3H)-one], the pIC50 was 8.22. With `CCCCc1nc(C)c(CC(=O)N2CCC(C(N)=O)CC2)c(=O)n1Cc1ccc(-c2ccccc2-c2nn[nH]n2)cc1` [Compound 54, 2-n-butyl-5-(4'-aminocarbonylpiperidinocarbonylmethyl)-6-methyl-3-[[2'-(1H-tetrazol-5-yl)biphenyl-4-yl]methyl]-pyrimidin-4-(3H)-one], the pIC50 is 8.66. `CCCCc1nc(=O)c(CCC(=O)O)c(CC)n1Cc1ccc(-c2ccccc2-c2nn[nH]n2)cc1` [Compound 35, 2-n-butyl-5-(2'-carboxyethyl)-6-ethyl-1-[[2'-(1H-tetrazol-5-yl)-biphenyl-4-yl]methyl]-pyrimidin-4-(1H)-one]: the pIC50 was 7.21. Consider `CCc1nc(C)c(CCC(=O)O)c(=O)n1Cc1ccc(-c2ccccc2-c2nnn[nH]2)cc1` [Compound 6, 2-ethyl-5-(2'-carboxyethyl)-6-methyl-3-[[2'-(1H-tetrazol-5-yl)-biphenyl-4-yl]methyl]-pyrimidin-4-(3H)-one], for which the pIC50 is 7.64. As for `CCCCc1nc(C)c(CCC(=O)N2CCCCCC2)c(=O)n1Cc1ccc(-c2ccccc2-c2nn[nH]n2)cc1` [Compound 70, 2-n-butyl-5-(2'-hexamethyleneiminocarbonylethyl)-6-methyl-3-[[2'-(1H-tetrazol-5-yl)biphenyl-4-yl]methyl]-pyrimidin-4-(3H)-one], the figure is 7.94; as for `CCCc1nc(C)c(CCC(=O)OCC)c(=O)n1Cc1ccc(-c2ccccc2-c2nn[nH]n2)cc1` [Compound 13, 2-n-propyl-5-(2'-ethoxycarbonylethyl)-6-methyl-3-[[2'-(1H-tetrazol-5-yl)biphenyl-4-yl]methyl]-pyrimidin-4-(3H)-one], 8.30; as for `CCCCc1nc(C)c(CCC(=O)N2C(C)COCC2C)c(=O)n1Cc1ccc(-c2ccccc2-c2nn[nH]n2)cc1` (stereo not shown) [Compound 79, 2-n-butyl-5-[2'-(3",5"-dimethylmorpholino)carbonylethyl]-6-methyl-3-[[2'-(1H-tetrazol-5-yl)biphenyl-4-yl]methyl]-pyrimidin-4-(3H)-one], 7.88. As for `CCCCc1nc(C)c(CC(=O)N2CCCC(C(=O)OCC)C2)c(=O)n1Cc1ccc(-c2ccccc2-c2nn[nH]n2)cc1` (stereo not shown) [Compound 52, 2-n-butyl-5-(3'-ethoxycarbonylpiperidinocarbonylmethyl)-6-methyl-3-[[2'-(1H-tetrazol-5-yl)biphenyl-4-yl]methyl]-pyrimidin-4-(3H)-one], the pIC50 is 8.45. Next, `CCCCc1nc(C)c(CCC(=O)N2CCN(C/C=C/c3ccccc3)CC2)c(=O)n1Cc1ccc(-c2ccccc2-c2nn[nH]n2)cc1` [Compound 83, 2-n-butyl-5-[2'-(4"-trans-cinnamylpiperazino)carbonylethyl]-6-methyl-3-[[2'-(1H-tetrazol-5-yl)biphenyl-4-yl]methyl]-pyrimidin-4-(3H)-one]: 6.82. For `CCCCc1nc(C)c(CC(=O)OCC)c(=O)n1Cc1ccc(-c2ccccc2C(=O)O)cc1` [Compound 38, 2-n-butyl-5-ethoxycarbonylmethyl-6-methyl-3-(2'-carboxy-biphenyl-4-yl)methyl-pyrimidin-4-(3H)-one], the pIC50 is 6.47.

With `CCCCc1nc(C)c(CC(=O)N2C(C)COCC2C)c(=O)n1Cc1ccc(-c2ccccc2-c2nn[nH]n2)cc1` (stereo not shown) [Compound 74, 2-n-butyl-5-(3',5'-dimethylmorpholinocarbonylmethyl)-6-methyl-3-[[2'-(1H-tetrazol-5-yl)biphenyl-4-yl]methyl]-pyrimidin-4-(3H)-one], the pIC50 was 8.99. As for `CCCCc1nc(=O)c(CCCC(=O)O)c(C)n1Cc1ccc(-c2ccccc2-c2nn[nH]n2)cc1` [Compound 31, 2-n-butyl-5-(3'-carboxypropyl)-6-methyl-1-[[2'-(1H-tetrazol-5-yl)biphenyl-4-yl]methyl]-pyrimidin-4-(1H)-one], the figure is 7.77.

Turning to `CCCCc1nc(C)c(CC(=O)N(CC)CC)c(=O)n1Cc1ccc(-c2ccccc2-c2nnn[nH]2)cc1` [Compound 21, 2-n-butyl-5-diethylaminocarbonylmethyl-6-methyl-3-[[2'-(1H-tetrazol-5-yl)biphenyl-4-yl]methyl]-pyrimidin-4-(3H)-one], the pIC50 is 8.58. Take `CCCCc1nc(C)c(CCC(=O)N2CCC(C(N)=O)CC2)c(=O)n1Cc1ccc(-c2ccccc2-c2nn[nH]n2)cc1` [Compound 68, 2-n-butyl-5-[2'-(4"-aminocarbonylpiperidino)carbonylethyl]-6-methyl-3-[[2'-(1H-tetrazol-5-yl)biphenyl-4-yl]methyl]-pyrimidin-4-(3H)-one]: the pIC50 is 8.64.

With `CCCCc1nc(C)c(CC(=O)N2CCCCC2C(=O)OCC)c(=O)n1Cc1ccc(-c2ccccc2-c2nn[nH]n2)cc1` (stereo not shown) [Compound 53, 2-n-butyl-5-(2'-ethoxycarbonylpiperidinocarbonylmethyl)-6-methyl-3-[[2'-(1H-tetrazol-5-yl)biphenyl-4-yl]methyl]-pyrimidin-4-(3H)-one], the pIC50 was 8.20. Regarding `CCCCc1nc(C)c(CC(=O)N2CCOCC2)c(=O)n1Cc1ccc(-c2ccccc2-c2nn[nH]n2)cc1` [Compound 73, 2-n-butyl-5-morpholinocarbonylmethyl-6-methyl-3-[[2'-(1H-tetrazol-5-yl)biphenyl-4-yl]methyl]-pyrimidin-4-(3H)-one], the pIC50 is 8.76. As for `CCCCc1nc(C)c(CCC(=O)N2CCN(C(C)=O)CC2)c(=O)n1Cc1ccc(-c2ccccc2-c2nn[nH]n2)cc1` [Compound 81, 2-n-butyl-5-[2'-(4"-acetylpiperazino)carbonylethyl]-6-methyl-3-[[2'-(1H-tetrazol-5-yI)biphenyl-4-yl]methyl]-pyrimidin-4-(3H)-one], the pIC50 is 8.01. For the molecule `CCCCc1nc(=O)c(CC(=O)N2CCCC2)c(C)n1Cc1ccc(-c2ccccc2-c2nn[nH]n2)cc1` [Compound 41, 2-n-butyl-5-pyrrolidinocarbonylmethyl-6-methyl-1-[[2'-(1H-tetrazol-5-yl)biphenyl-4-yl]methyl]-pyrimidin-4-(1H) -one], the pIC50 is 6.92. Take `CCCCc1nc(C)c(CCC(=O)OCC)c(=O)n1Cc1ccc(-c2ccccc2-c2nnn[nH]2)cc1` [Compound 23, 2-n-butyl-5-(2'-ethoxycarbonylethyl) -6-methyl-3-[[2'-(1H-tetrazol-5-yl)biphenyl-4-yl]methyl]-pyrimidin-4-(3H)-one]: the pIC50 was 8.46. In the case of `CCCCc1nc(C)c(CCC(=O)N2CCN(c3ccccn3)CC2)c(=O)n1Cc1ccc(-c2ccccc2-c2nn[nH]n2)cc1` [Compound 82, 2-n-butyl-5-[2'-(4"-(2'"-pyridyl)piperazino)carbonylethyl]-6-methyl-3-[[2'-(1H-tetrazol-5-yl)biphenyl-4-yl]methyl]-pyrimidin-4-(3H)-one], the pIC50 was 7.28.
